What was measured:
Balb/c mice [1] = experiment: EPO levels in plasma, EPO MSD kit (Example 6); type: in vivo; settings: mRNA dose 5 μg FLUC + 5 μg EPO, intravenous
[2] = mRNA encapsulation efficiency, Quant-iT RiboGreen RNA Assay; type: physicochemical; settings: LNP with FLUC/EPO 1:1 mRNA
Description: (§1) For each LNP composition, the lipid mix and mRNA solution were mixed at a 1:3 ratio by volume, respectively, on a NanoAssemblr Ignite (Precision Nanosystems) at a total flow rate of 9 mL/min. The resulting compositions were then loaded into Slide-A-Lyzer G2 dialysis cassettes (10 k MWCO) and dialyzed in 200 times sample volume of 1×PBS for 2 hours at room temperature with gentle stirring. The PBS was refreshed, and the compositions were further dialyzed for at least 14 hours at 4° C. with gentle stirring. The dialyzed compositions were then collected and concentrated by centrifugation at 3000×g using Amicon Ultra centrifugation filters (100 k MWCO). The concentrated particles were characterized for size, polydispersity, and particle concentration using Zetasizer Ultra (Malvern Panalytical) and for mRNA encapsulation efficiency using Quant-iT RiboGreen RNA Assay Kit (ThermoFisher Scientific).

[3] = LNP size and polydispersity, Zetasizer Ultra; type: physicochemical; settings: LNP with FLUC/EPO 1:1 mRNA
Description: as §1

Balb/c mice [4] = experiment: In-vivo bioluminescent imaging of LNP compositions (Example 6); settings: mRNA dose 5 μg FLUC + 5 μg EPO; for Bioluminescence (IV) Liver / Bioluminescence (IV) Lung / Bioluminescence (IV) Spleen / Bioluminescence (IV) Whole Body: 4-6 hours post-dose; for Spleen: Liver Ratio: intravenous
[5] = Apparent LNP pKa, TNS assay; type: physicochemical; settings: LNP with FLUC/EPO 1:1 mRNA
Description: For pKa measurement, a […] assay was conducted according to those described in Sabnis et al., Molecular Therapy, 26(6):1509-19), which is incorporated herein by reference in its entirety. Briefly, 20 buffers (10 mM sodium phosphate, 10 mM sodium borate, 10 mM sodium citrate, and 150 mM sodium chloride, in distilled Water) of unique pH values ranging from 3.0-12.0 were prepared using 1M sodium hydroxide and 1M hydrochloric acid. 3.25 μL of a LNP composition (0.04 mg/mL mRNA, in PBS) was incubated with 2 μL of TNS reagent (0.3 mM, in DMSO) and 90 μL of buffer for each pH value (described above) in a 96-well black-walled plate. Each pH condition was performed in triplicate wells. The TNS fluorescence was measured using a Biotek Cytation Plate reader at excitation/emission wavelengths of 321/445 nm. The fluorescence values were then plotted and fit using a 4-parameter sigmoid curve. From the fit, the pH value yielding the half-maximal fluorescence was calculated and reported as the apparent LNP pKa value.

Row | Structure (SMILES) | % EE [2] | PDI [3] | Size (nm) [3] | pKa (TNS) [5] | hEPO (Balb/c mice [1]) | Bioluminescence (IV) Liver (Balb/c mice [4]) | Bioluminescence (IV) Lung (Balb/c mice [4]) | Bioluminescence (IV) Spleen (Balb/c mice [4]) | Bioluminescence (IV) Whole Body (Balb/c mice [4]) | Spleen: Liver Ratio (Balb/c mice [4])
1 | CCCCCCCCC(CCCCCC)C(=O)OCCCCCCN(CCCCCCOC(=O)C(CCCCCC)CCCCCCCC)CCC(O)CN(C)C (centres unmarked) [Compound 2225, ((4-(dimethylamino)-3-hydroxybutyl)azanediyl) bis(hexane-6,1-diyl) bis(2-hexyldecanoate)] | 97.9% | 0.07 | 81.88 nm | 7.25 | – | 1.8E + 05 | 1.0E + 04 | 2.2E + 05 | 3.5E + 05 | 1.261
2 | CCCCCCCCCCCOC(=O)CCCCCN(CCCCCCCC(=O)OC(CCCCCCCC)CCCCCCCC)C(C)CO (centres unmarked) [Compound 2249, heptadecan-9-yl 8-((1-hydroxypropan-2-yl)(6-oxo-6-(undecyloxy)hexyl)amino)octanoate] | 93.3% | 0.08 | 86.05 nm | 5.84 | 7.6E + 05 | 1.2E + 07 | 7.9E + 03 | 3.2E + 06 | 7.2E + 07 | 0.258
3 | CCCCCCC(CCCCCC)CCCOC(=O)CCCCCCCN(CCCCCCCC(=O)OCCCC(CCCCCC)CCCCCC)C(=O)CCCN(C)C [Compound 2133, bis(4-hexyldecyl) 8,8′-((4-(dimethylamino)butanoyl)azanediyl) dioctanoate] | 98.7% | 0.08 | 87.7 nm | 7.96 | 2.5E + 02 | 4.4E + 04 | 5.8E + 04 | 3.9E + 04 | 3.8E + 04 | 1.574

Further lines, with some results ahead:

Row | % EE [2] | PDI [3] | Size (nm) [3] | pKa (TNS) [5] | Structure (SMILES) | hEPO (Balb/c mice [1]) | Bioluminescence (IV) Liver (Balb/c mice [4]) | Bioluminescence (IV) Lung (Balb/c mice [4]) | Bioluminescence (IV) Spleen (Balb/c mice [4]) | Bioluminescence (IV) Whole Body (Balb/c mice [4]) | Spleen: Liver Ratio (Balb/c mice [4])
4 | 92.2% | 0.068 | 73.75 nm | 6.31 | CCCCCCCCCCCOC(=O)CCCCCN(CCCCCCCC(=O)OC(CCCCCCCC)CCCCCCCC)C(C)(C)CO [Compound 2250, heptadecan-9-yl 8-((1-hydroxy-2-methylpropan-2-yl)(6-oxo-6-(undecyloxy)hexyl)amino)octanoate] | 9.5E + 05 | 2.7E + 07 | 7.9E + 03 | 2.7E + 06 | 1.5E + 08 | 0.099
5 | 97.5% | 0.067 | 84.84 nm | 7.76 | CCCCCC(CCCCC)CCCOC(=O)CCCCCCCN(CCCCCCCC(=O)OCCCC(CCCCC)CCCCC)C(=O)CCN1CCC(O)C1 (centres unmarked) [Compound 2235, bis(4-pentylnonyl) 8,8′-((3-(3-hydroxypyrrolidin-1-yl)propanoyl)azanediyl)dioctanoate] | 2.2E + 02 | 2.0E + 03 | 7.6E + 03 | 2.9E + 04 | 9.8E + 03 | 14.407
6 | 91.2% | 0.04 | 85.5 nm | 6.83 | CCCCCC(CCCCC)CCCOC(=O)CCCCCCCN(CCCCCCCC(=O)OCCCC(CCCCC)CCCCC)C(=O)CN1CCCC1 [Compound 2233, bis(4-pentylnonyl) 8,8′-((2-(pyrrolidin-1-yl)acetyl)azanediyl) dioctanoate] | 2.8E + 06 | 6.1E + 07 | 4.1E + 04 | 4.7E + 06 | 5.4E + 08 | 0.077
